Results as given in ChEMBL document CHEMBL4138123, “Design, synthesis and biological evaluation of novel pyrazolochalcones as potential modulators of PI3K/Akt/mTOR pathway and inducers of apoptosis in breast cancer cells” (Eur J Med Chem, 2017).

Legend:
Type in all cases: functional
UACC-257 = assay: Cytotoxicity against human UACC257 cells assessed as cell growth at 0.01 uM after 48 hrs by sulforhodamine B assay relative to control; details: UACC-257, 48 h, read-out: Activity
OVCAR-4 = assay: Cytotoxicity against human OVCAR4 cells assessed as growth inhibition after 48 hrs by sulforhodamine B assay; details: OVCAR-4, 48 h
K562 = assay: Cytotoxicity against human K562 cells assessed as cell growth at 0.1 uM after 48 hrs by sulforhodamine B assay relative to control; details: K562, 48 h, read-out: Activity
MCF7 [1] = assay: Cytotoxicity against human MCF7 cells assessed as cell growth at 1 uM after 48 hrs by sulforhodamine B assay relative to control; details: MCF7, 48 h, read-out: Activity
NCI-H23 [2] = assay: Cytotoxicity against human NCI-H23 cells assessed as cell growth at 100 uM after 48 hrs by sulforhodamine B assay relative to control; details: NCI-H23, 48 h, read-out: Activity
HCT-15 = assay: Cytotoxicity against human HCT15 cells assessed as cell growth at 1 uM after 48 hrs by sulforhodamine B assay relative to control; details: HCT-15, 48 h, read-out: Activity
A498 = assay: Cytotoxicity against human A498 cells assessed as cell growth at 1 uM after 48 hrs by sulforhodamine B assay relative to control; details: A498, 48 h, read-out: Activity
HCC 2998 = assay: Cytotoxicity against human HCC2998 cells assessed as cell growth at 10 uM after 48 hrs by sulforhodamine B assay relative to control; details: HCC 2998, 48 h, read-out: Activity
SK-OV-3 [3] = assay: Cytotoxicity against human SKOV3 cells assessed as growth inhibition after 48 hrs by sulforhodamine B assay; details: SK-OV-3, 48 h
SF-268 = assay: Cytotoxicity against human SF268 cells assessed as cell growth at 100 uM after 48 hrs by sulforhodamine B assay relative to control; details: SF-268, 48 h, read-out: Activity
M14 = assay: Cytotoxicity against human M14 cells assessed as cell growth at 0.1 uM after 48 hrs by sulforhodamine B assay relative to control; details: M14, 48 h, read-out: Activity
Malme-3M = assay: Cytotoxicity against human MALME-3M cells assessed as growth inhibition after 48 hrs by sulforhodamine B assay
IGROV-1 = assay: Cytotoxicity against human IGROV1 cells assessed as cell growth at 0.01 uM after 48 hrs by sulforhodamine B assay relative to control; details: IGROV-1, 48 h, read-out: Activity
HL-60(TB) = assay: Cytotoxicity against human HL-60(TB) cells assessed as cell growth at 0.1 uM after 48 hrs by sulforhodamine B assay relative to control; details: HL-60, 48 h, read-out: Activity
NCI-H522 = assay: Cytotoxicity against human NCI-H522 cells assessed as cell growth at 0.1 uM after 48 hrs by sulforhodamine B assay relative to control; details: NCI-H522, 48 h, read-out: Activity
SF-539 = assay: Cytotoxicity against human SF539 cells assessed as cell growth at 100 uM after 48 hrs by sulforhodamine B assay relative to control; details: SF-539, 48 h, read-out: Activity
NCI-H322M = assay: Cytotoxicity against human NCI-H322M cells assessed as cell growth at 0.01 uM after 48 hrs by sulforhodamine B assay relative to control; details: read-out: Activity
SK-OV-3 [4] = assay: Cytotoxicity against human SKOV3 cells assessed as cell growth at 100 uM after 48 hrs by sulforhodamine B assay relative to control; details: SK-OV-3, 48 h, read-out: Activity
A549 = assay: Cytotoxicity against human A549/ATCC cells assessed as cell growth at 0.1 uM after 48 hrs by sulforhodamine B assay relative to control; details: A549, 48 h, read-out: Activity
MOLT-4 = assay: Cytotoxicity against human MOLT4 cells assessed as cell growth at 1 uM after 48 hrs by sulforhodamine B assay relative to control; details: MOLT-4, 48 h, read-out: Activity
RXF 393 = assay: Cytotoxicity against human RXF393 cells assessed as cell growth at 1 uM after 48 hrs by sulforhodamine B assay relative to control; details: RXF 393, 48 h, read-out: Activity
UO-31 = assay: Cytotoxicity against human UO31 cells assessed as cell growth at 100 uM after 48 hrs by sulforhodamine B assay relative to control; details: UO-31, 48 h, read-out: Activity
TK-10 = assay: Cytotoxicity against human TK10 cells assessed as cell growth at 10 uM after 48 hrs by sulforhodamine B assay relative to control; details: TK-10, 48 h, read-out: Activity
MDA-MB-231 [5] = assay: Cytotoxicity against human MDA-MB-231 cells assessed as cell growth at 1 uM after 48 hrs by sulforhodamine B assay relative to control; details: MDA-MB-231, 48 h, read-out: Activity
MCF7 [6] = assay: Cytotoxicity against human MCF7 cells assessed as cell growth at 0.1 uM after 48 hrs by sulforhodamine B assay relative to control; details: MCF7, 48 h, read-out: Activity
NCI-H23 [7] = assay: Cytotoxicity against human NCI-H23 cells assessed as cell growth at 10 uM after 48 hrs by sulforhodamine B assay relative to control; details: NCI-H23, 48 h, read-out: Activity
UACC-62 = assay: Cytotoxicity against human UACC62 cells assessed as cell growth at 10 uM after 48 hrs by sulforhodamine B assay relative to control; details: UACC-62, 48 h, read-out: Activity
OVCAR-3 = assay: Cytotoxicity against human OVCAR3 cells assessed as cell growth at 1 uM after 48 hrs by sulforhodamine B assay relative to control; details: OVCAR-3, 48 h, read-out: Activity
MCF7 [8] = assay: Cytotoxicity against human MCF7 cells assessed as cell growth at 10 uM after 48 hrs by sulforhodamine B assay relative to control; details: MCF7, 48 h, read-out: Activity
Hs-578T = assay: Cytotoxicity against human Hs 578T cells assessed as cell growth at 0.1 uM after 48 hrs by sulforhodamine B assay relative to control; details: read-out: Activity
PC-3 = assay: Cytotoxicity against human PC3 cells assessed as cell growth at 100 uM after 48 hrs by sulforhodamine B assay relative to control; details: PC-3, 48 h, read-out: Activity
SNB-19 = assay: Cytotoxicity against human SNB19 cells assessed as cell growth at 1 uM after 48 hrs by sulforhodamine B assay relative to control; details: SNB-19, 48 h, read-out: Activity
786-0 [9] = assay: Cytotoxicity against human 786-0 cells assessed as cell growth at 10 uM after 48 hrs by sulforhodamine B assay relative to control; details: 786-0, 48 h, read-out: Activity
MDA-MB-231 [10] = assay: Cytotoxicity against human MDA-MB-231 cells assessed as growth inhibition after 48 hrs by sulforhodamine B assay; details: MDA-MB-231, 48 h
786-0 [11] = assay: Cytotoxicity against human 786-0 cells assessed as growth inhibition after 48 hrs by sulforhodamine B assay; details: 786-0, 48 h

SMILES: COc1ccc(-c2cc(/C=C/C(=O)c3ccc(N)cc3)[nH]n2)cc1OC
- growth at 0.01 µM (UACC-257): 90%
- GI50 (OVCAR-4): 2.68 µM
- LC50 (OVCAR-4): 40.5 µM
- TGI (OVCAR-4): 15.8 µM
- growth at 0.1 µM (K562): 98%
- growth at 1 µM (MCF7 [1]): 81%
- growth at 100 µM (NCI-H23 [2]): -51%
- growth at 1 µM (HCT-15): 73%
- growth at 1 µM (A498): 89%
- growth at 10 µM (HCC 2998): -75%
- GI50 (SK-OV-3 [3]): 4.86 µM
- LC50 (SK-OV-3 [3]): 41.3 µM
- TGI (SK-OV-3 [3]): 16.8 µM
- growth at 100 µM (SF-268): -80%
- growth at 0.1 µM (M14): 97%
- GI50 (Malme-3M): 6.72 µM
- LC50 (Malme-3M): 59.2 µM
- TGI (Malme-3M): 21.2 µM
- growth at 0.01 µM (IGROV-1): 106%
- growth at 0.1 µM (HL-60(TB)): 104%
- growth at 0.1 µM (NCI-H522): 95%
- growth at 100 µM (SF-539): -92%
- growth at 0.01 µM (NCI-H322M): 96%
- growth at 100 µM (SK-OV-3 [4]): -99%
- growth at 0.1 µM (A549): 93%
- growth at 1 µM (MOLT-4): 93%
- growth at 1 µM (RXF 393): 94%
- growth at 100 µM (UO-31): -85%
- growth at 10 µM (TK-10): 56%
- growth at 1 µM (MDA-MB-231 [5]): 98%
- growth at 0.1 µM (MCF7 [6]): 89%
- growth at 10 µM (NCI-H23 [7]): 21%
- growth at 10 µM (UACC-62): 3%
- growth at 1 µM (OVCAR-3): 92%
- growth at 10 µM (MCF7 [8]): -6%
- growth at 0.1 µM (Hs-578T): 93%
- growth at 100 µM (PC-3): -48%
- growth at 1 µM (SNB-19): 84%
- growth at 10 µM (786-0 [9]): -48%
- GI50 (MDA-MB-231 [10]): 4.42 µM
- LC50 (MDA-MB-231 [10]): 53.9 µM
- TGI (MDA-MB-231 [10]): 17.2 µM
- GI50 (786-0 [11]): 1.88 µM
- LC50 (786-0 [11]): 10.8 µM
- TGI (786-0 [11]): 4.39 µM

SMILES: COc1cc(-c2cc(/C=C/C(=O)c3ccc(Cl)c(Cl)c3)[nH]n2)cc(OC)c1OC
- growth at 0.01 µM (UACC-257): 96%
- LC50 (OVCAR-4): > 100 µM
- TGI (OVCAR-4): 50.9 µM
- growth at 0.1 µM (K562): 106%
- growth at 1 µM (MCF7 [1]): 62%
- growth at 100 µM (NCI-H23 [2]): 5%
- growth at 1 µM (HCT-15): 86%
- growth at 1 µM (A498): 73%
- growth at 10 µM (HCC 2998): 49%
- LC50 (SK-OV-3 [3]): 62.5 µM
- TGI (SK-OV-3 [3]): 18.8 µM
- growth at 100 µM (SF-268): -15%
- growth at 0.1 µM (M14): 94%
- LC50 (Malme-3M): > 100 µM
- TGI (Malme-3M): > 100 µM
- growth at 0.01 µM (IGROV-1): 97%
- growth at 0.1 µM (HL-60(TB)): 100%
- growth at 0.1 µM (NCI-H522): 89%
- growth at 100 µM (SF-539): -74%
- growth at 0.01 µM (NCI-H322M): 89%
- growth at 100 µM (SK-OV-3 [4]): -70%
- growth at 0.1 µM (A549): 99%
- growth at 1 µM (MOLT-4): 97%
- growth at 1 µM (RXF 393): 81%
- growth at 100 µM (UO-31): 18%
- growth at 10 µM (TK-10): 46%
- growth at 1 µM (MDA-MB-231 [5]): 89%
- growth at 0.1 µM (MCF7 [6]): 105%
- growth at 10 µM (NCI-H23 [7]): 79%
- growth at 10 µM (UACC-62): 63%
- growth at 1 µM (OVCAR-3): 102%
- growth at 10 µM (MCF7 [8]): 15%
- growth at 0.1 µM (Hs-578T): 105%
- growth at 100 µM (PC-3): 10%
- growth at 1 µM (SNB-19): 90%
- growth at 10 µM (786-0 [9]): 50%
- LC50 (MDA-MB-231 [10]): > 100 µM
- TGI (MDA-MB-231 [10]): > 100 µM
- LC50 (786-0 [11]): > 100 µM
- TGI (786-0 [11]): 68 µM
